According to the supplement of paper PMC10331698:
± gives the standard deviation of the averaged measurements.

Columns and labels:
Test in all cases: level (log10 ratio to DMSO vehicle control); higher = higher biomarker level / cell amount than vehicle control
[1] = compound: O=S(=O)(O)C(F)(F)C(F)(F)C(F)(F)C(F)(F)C(F)(F)C(F)(F)C(F)(F)F [Perfluoroheptanesulfonic acid] (in DMSO)
Procedure: (§1)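 BioMAP Diversity Plus panel of 12 human primary cell co-culture systems (3C, 4H, LPS, SAg, BT, BF4T, BE3C, CASM3C, HDF3CGF, KF3CT, MyoF, Mphg). Compounds were added 1 h before stimulation and left for 24 h (MyoF 48 h; BT 72 h for soluble read-outs or 6 d for IgG). Biomarkers were read by ELISA, cytotoxicity by SRB, PBMC viability and proliferation by Alamar Blue. Each well value was divided by the mean of 8 DMSO control wells on the same plate and log10 transformed; duplicate blinded samples were tested at 4 concentrations.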

[2] = compound: O=C(O)C(F)(F)OC(F)(F)C(F)(F)OC(F)(F)C(F)(F)OC(F)(F)C(F)(F)C(F)(F)C(F)(F)F [Perfluoro-3,6,9-trioxatridecanoic acid] (in DMSO); conditions: 6700 nM
Procedure: as §1

[3] = compound: O=S(=O)(O)C(F)(F)C(F)(F)OC(F)(F)C(F)(F)F [Perfluoro(2-ethoxyethane)sulfonic acid] (in DMSO)
Procedure: as §1

[4] = compound: CO[Si](C)(CCC(F)(F)C(F)(F)C(F)(F)C(F)(F)C(F)(F)C(F)(F)F)OC [Dimethoxymethyl((perfluorohexyl)ethyl)silane] (in DMSO)
Procedure: as §1

[5] = compound: CCOC(=O)CC(=O)C(F)(F)C(F)(F)F [Ethyl pentafluoropropionyl acetate] (in DMSO)
Procedure: as §1

[6] = compound: O=C(O)C(F)(OC(F)(F)C(F)(F)C(F)(F)F)C(F)(F)F [Ammonium perfluoro-2-methyl-3-oxahexanoate] (in Water)
Procedure: as §1

[7] = compound: OCCC(F)(F)C(F)(F)C(F)(F)C(F)(F)F [4:2 Fluorotelomer alcohol] (in DMSO)
Procedure: as §1

Test System | level (log10) ([1]; 1500 nM) | level (log10) ([1]; 4400 nM) | level (log10) ([1]; 13000 nM) | level (log10) ([1]; 40000 nM) | level (log10) [2] | level (log10) ([3]; 6700 nM) | level (log10) ([3]; 20000 nM) | level (log10) ([3]; 60000 nM) | level (log10) ([4]; 6700 nM) | level (log10) ([4]; 20000 nM) | level (log10) ([5]; 6700 nM) | level (log10) ([5]; 20000 nM) | level (log10) ([5]; 60000 nM) | level (log10) ([6]; 6700 nM) | level (log10) ([6]; 20000 nM) | level (log10) ([6]; 60000 nM) | level (log10) ([7]; 6700 nM) | level (log10) ([7]; 20000 nM) | level (log10) ([7]; 60000 nM)
BF4T:CD90 | -0.004 ± 0.0014 | -0.004 | -0.027 ± 0.0085 | -0.0205 ± 0.013 | 0.0045 ± 0.0021 | -0.01 ± 0.0085 | -0.0185 ± 0.0092 | -0.0185 ± 0.0021 | 0.0085 ± 0.018 | 0 ± 0.021 | -0.009 ± 0.018 | -0.0015 ± 0.013 | -0.0135 ± 0.012 | -0.0065 ± 0.011 | -0.015 ± 0.011 | -0.007 ± 0.024 | -0.0285 ± 0.0078 | -0.0085 ± 0.03 | -0.0125 ± 0.0064
BT:sIL-6 | 0.004 ± 0.013 | 0.03 ± 0.013 | -0.027 ± 0.011 | -0.139 ± 0.057 | 0.0165 ± 0.032 | 0.006 ± 0.03 | -0.029 ± 0.0085 | -0.027 ± 0.076 | -0.038 ± 0.076 | 0.0465 ± 0.14 | 0.019 ± 0.099 | 0.046 ± 0.11 | -0.053 ± 0.1 | -0.0915 ± 0.0035 | -0.0905 ± 0.021 | -0.151 ± 0.014 | 0.035 ± 0.02 | 0.0455 ± 0.036 | 0.009 ± 0.069
3C:CXCL9/MIG | 0.006 ± 0.0014 | -0.006 ± 0.0071 | 0 ± 0.0057 | 0.0075 ± 0.011 | 0.0115 ± 0.00071 | -0.0005 ± 0.0064 | -0.0045 ± 0.0035 | 0.0075 ± 0.0021 | -0.011 ± 0.0014 | 0.003 ± 0.0071 | 0.001 ± 0.0028 | -0.0015 ± 0.0092 | 0.0025 ± 0.0078 | -0.0085 ± 0.011 | -0.003 ± 0.0099 | -0.004 | -0.01 ± 0.0057 | -0.0025 ± 0.0078 | 0 ± 0.0042
BT:Secreted IgG | 0.0285 ± 0.0021 | 0.0265 ± 0.0064 | -0.006 ± 0.033 | 0.002 ± 0.045 | -0.0225 ± 0.0092 | 0.0355 ± 0.0035 | -0.0135 ± 0.084 | -0.0095 ± 0.086 | 0.0505 ± 0.0078 | 0.021 ± 0.018 | 0.024 ± 0.014 | 0.025 ± 0.0071 | 0.013 ± 0.0014 | -0.12 ± 0.07 | -0.113 ± 0.059 | -0.156 | 0.023 ± 0.028 | 0.0205 ± 0.018 | 0.013 ± 0.0057
BT:sIL-2 | -0.0445 ± 0.037 | 0.0215 ± 0.039 | -0.0005 ± 0.013 | -0.0565 ± 0.036 | 0.0075 ± 0.016 | -0.023 ± 0.0085 | -0.0935 ± 0.04 | -0.0595 ± 0.066 | -0.0455 ± 0.12 | 0.0425 ± 0.026 | -0.058 ± 0.099 | -0.0055 ± 0.04 | -0.007 ± 0.069 | -0.093 ± 0.0099 | -0.0525 ± 0.015 | -0.124 ± 0.028 | 0.0085 ± 0.064 | 0.0625 ± 0.11 | 0.0265 ± 0.071
BF4T:CXCL8/IL-8 | 0.015 ± 0.014 | 0.006 ± 0.0014 | 0.049 ± 0.0014 | 0.121 ± 0.02 | 0.0165 ± 0.049 | 0.008 ± 0.0099 | 0.005 ± 0.024 | 0.0365 ± 0.011 | -0.005 ± 0.027 | 0.012 ± 0.018 | 0.0095 ± 0.012 | -0.0015 ± 0.023 | 0.021 ± 0.011 | -0.0135 ± 0.036 | 0.0295 ± 0.028 | 0.0255 ± 0.03 | 0.0235 ± 0.039 | 0.035 ± 0.0014 | 0.082 ± 0.0014
4H:CD62P/P-selectin | -0.0225 ± 0.043 | -0.0165 ± 0.005 | -0.002 ± 0.02 | 0.0305 ± 0.022 | 0.033 ± 0.023 | -0.02 ± 0.014 | 0.0445 ± 0.005 | -0.0105 ± 0.015 | -0.0095 ± 0.033 | -0.0135 ± 0.036 | 0.005 | -0.012 ± 0.038 | 0.009 ± 0.013 | -0.0475 ± 0.012 | -0.0065 ± 0.03 | -0.054 ± 0.048 | -0.0235 ± 0.037 | -0.02 ± 0.0071 | 0.025 ± 0.023
BE3C:CXCL8/IL-8 | 0.0105 ± 0.018 | 0.02 ± 0.0099 | 0.0405 ± 0.019 | 0.0595 ± 0.057 | -0.259 ± 0.0014 | 0.0135 ± 0.016 | 0.008 ± 0.038 | 0.04 ± 0.0028 | -0.006 ± 0.0085 | 0.038 ± 0.038 | 0.0095 ± 0.03 | 0.017 ± 0.021 | 0.032 ± 0.0014 | -0.013 ± 0.071 | 0.0005 ± 0.011 | 0.0195 ± 0.011 | -0.001 ± 0.0085 | -0.006 ± 0.0014 | 0.043 ± 0.04
4H:CCL26/Eotaxin-3 | -0.006 ± 0.025 | -0.061 ± 0.035 | -0.0335 ± 0.011 | -0.0665 ± 0.022 | -0.007 ± 0.038 | 0.049 ± 0.027 | 0.0585 ± 0.0078 | 0.0405 ± 0.00071 | -0.0125 ± 0.023 | 0.011 ± 0.014 | -0.007 ± 0.024 | 0.006 ± 0.0085 | -0.019 ± 0.018 | -0.0615 ± 0.0021 | -0.064 ± 0.0014 | -0.118 ± 0.012 | -0.018 ± 0.016 | -0.0045 ± 0.0035 | -0.0015 ± 0.0035
3C:SRB | -0.0295 ± 0.023 | -0.0275 ± 0.0078 | -0.0065 ± 0.016 | -0.0125 ± 0.023 | -0.002 ± 0.014 | -0.022 ± 0.0042 | -0.0025 ± 0.00071 | -0.0275 ± 0.0021 | -0.006 ± 0.0028 | 0.0085 ± 0.0035 | 0.006 ± 0.0085 | 0.007 ± 0.0085 | 0.01 ± 0.034 | -0.019 ± 0.011 | -0.021 ± 0.0042 | -0.045 | -0.006 ± 0.0085 | -0.0065 ± 0.011 | -0.0045 ± 0.0092
BF4T:IL-1alpha | 0.0205 ± 0.025 | 0.0055 ± 0.005 | 0.01 ± 0.0014 | 0.0205 ± 0.016 | -0.055 ± 0.013 | -0.0065 ± 0.0078 | -0.016 ± 0.0071 | 0.0165 ± 0.0092 | -0.0245 ± 0.0078 | 0.014 ± 0.035 | 0.017 ± 0.021 | 0.0035 ± 0.018 | 0.0315 ± 0.0035 | 0.018 ± 0.03 | 0.0055 ± 0.036 | -0.0085 ± 0.021 | -0.0245 ± 0.028 | 0.004 ± 0.0028 | 0.0055 ± 0.016
BE3C:CXCL11/I-TAC | -0.0095 ± 0.069 | 0.021 ± 0.038 | 0.0255 ± 0.011 | 0.0495 ± 0.025 | -0.992 ± 0.025 | 0.032 ± 0.0057 | 0.076 ± 0.0042 | 0.073 ± 0.0042 | -0.0055 ± 0.019 | -0.0125 ± 0.0035 | 0.002 ± 0.028 | 0.002 ± 0.0099 | -0.0015 ± 0.0078 | -0.011 ± 0.0057 | 0.0115 ± 0.0021 | -0.0045 ± 0.0078 | 0.004 ± 0.0014 | 0.0075 ± 0.0078 | 0.0155 ± 0.012
4H:CD106/VCAM-1 | -0.002 ± 0.062 | -0.029 ± 0.017 | -0.0345 ± 0.019 | -0.0295 ± 0.03 | -0.023 ± 0.0085 | -0.0085 ± 0.00071 | 0.0075 ± 0.037 | 0.01 ± 0.033 | 0.003 ± 0.011 | 0.0265 ± 0.0035 | -0.003 ± 0.034 | 0.03 ± 0.018 | 0.0215 ± 0.013 | -0.0455 ± 0.005 | -0.0365 ± 0.018 | -0.037 ± 0.021 | -0.025 ± 0.023 | -0.0105 ± 0.013 | 0.0085 ± 0.0078
BE3C:CD54/ICAM-1 | 0.006 ± 0.027 | 0.0015 ± 0.022 | -0.0025 ± 0.036 | 0.0055 ± 0.052 | -0.688 ± 0.018 | 0.001 ± 0.011 | -0.0115 ± 0.0092 | -0.022 ± 0.017 | 0 ± 0.0085 | 0 ± 0.0042 | 0.0175 ± 0.011 | 0.0185 ± 0.018 | 0.006 ± 0.0042 | -0.007 ± 0.0057 | -0.0025 ± 0.0035 | -0.016 | -0.019 ± 0.024 | -0.008 ± 0.0057 | 0.01 ± 0.0028
